Results published in the supplement of paper PMC10307832.

Key:
Test in all cases: relative viability (nuclei count vs DMSO), 5 days (fraction); higher = more cells survive
IPA-3 + OSI-027 = compound: C1=CC=C2C(=C1)C=CC(=C2SSC3=C(C=CC4=CC=CC=C43)O)O [IPA-3] + COc1cccc2cc(-c3nc([C@H]4CC[C@H](C(=O)O)CC4)n4ncnc(N)c34)[nH]c12 [OSI-027] (partner 0.5 µM)
Method in brief: (§1)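 Five library-drug doses in √10 steps were combined with a fixed anchor-drug dose, or a single drug was given alone, by pin tool to lung cancer cell lines in 1536-well plates the day after seeding. Nuclei were stained and counted after 5 days. Relative viability is the nuclei count in treated wells over that in vehicle wells, taken as the median of duplicate plates.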

IPA-3 + Pemetrexed = compound: C1=CC=C2C(=C1)C=CC(=C2SSC3=C(C=CC4=CC=CC=C43)O)O [IPA-3] + Nc1nc2[nH]cc(CCc3ccc(C(=O)N[C@@H](CCC(=O)O)C(=O)O)cc3)c2c(=O)[nH]1 [Pemetrexed] (partner 0.2 µM)
Method in brief: as §1

IPA-3 + Vorinostat = compound: C1=CC=C2C(=C1)C=CC(=C2SSC3=C(C=CC4=CC=CC=C43)O)O [IPA-3] + O=C(CCCCCCC(=O)Nc1ccccc1)NO [Vorinostat] (partner 1 µM)
Method in brief: as §1

Doramapimod + Pictilisib = compound: Cc1ccc(-n2nc(C(C)(C)C)cc2NC(=O)Nc2ccc(OCCN3CCOCC3)c3ccccc23)cc1 [Doramapimod] + CS(=O)(=O)N1CCN(Cc2cc3nc(-c4cccc5[nH]ncc45)nc(N4CCOCC4)c3s2)CC1 [Pictilisib] (partner 1 µM)
Method in brief: as §1

Cell Line | relative viability (IPA-3 + OSI-027; first compound 0.2 µM) | relative viability (IPA-3 + OSI-027; first compound 0.6325 µM) | relative viability (IPA-3 + OSI-027; first compound 2 µM) | relative viability (IPA-3 + OSI-027; first compound 6.325 µM) | relative viability (IPA-3 + OSI-027; first compound 20 µM) | relative viability (IPA-3 + Pemetrexed; first compound 0.2 µM) | relative viability (IPA-3 + Pemetrexed; first compound 0.6325 µM) | relative viability (IPA-3 + Pemetrexed; first compound 2 µM) | relative viability (IPA-3 + Pemetrexed; first compound 6.325 µM) | relative viability (IPA-3 + Pemetrexed; first compound 20 µM) | relative viability (IPA-3 + Vorinostat; first compound 0.2 µM) | relative viability (IPA-3 + Vorinostat; first compound 0.6325 µM) | relative viability (IPA-3 + Vorinostat; first compound 2 µM) | relative viability (IPA-3 + Vorinostat; first compound 6.325 µM) | relative viability (IPA-3 + Vorinostat; first compound 20 µM) | relative viability (Doramapimod + Pictilisib; first compound 0.02 µM) | relative viability (Doramapimod + Pictilisib; first compound 0.06325 µM) | relative viability (Doramapimod + Pictilisib; first compound 0.2 µM) | relative viability (Doramapimod + Pictilisib; first compound 0.6325 µM) | relative viability (Doramapimod + Pictilisib; first compound 2 µM)
LXF-289 | 0.909 | 0.722 | 0.696 | 0.847 | 0.911 | 0.949 | 0.786 | 0.963 | 0.996 | 0.925 | 0.825 | 0.862 | 0.692 | 0.827 | 0.898 | 0.776 | 0.76 | 0.695 | 0.716 | 0.662
NCI-H23 | 0.591 | 0.544 | 0.577 | 0.571 | 0.533 | 0.694 | 0.628 | 0.764 | 0.644 | 0.68 | 0.735 | 0.616 | 0.595 | 0.611 | 0.501 | 0.435 | 0.438 | 0.374 | 0.509 | 0.484
NCI-H322M | 0.597 | 0.521 | 0.569 | 0.597 | 0.61 | 0.594 | 0.624 | 0.681 | 0.669 | 0.573 | 0.92 | 0.948 | 1.02 | 1.07 | 1.11 | 0.902 | 0.501 | 0.577 | 0.585 | 0.479
NCI-H358 | 0.895 | 0.733 | 0.746 | 0.69 | 0.758 | 0.168 | 0.172 | 0.159 | 0.162 | 0.158 | 0.785 | 0.618 | 0.783 | 0.619 | 0.803 | 0.388 | 0.329 | 0.373 | 0.373 | 0.321
NCI-H441 | 0.819 | 0.613 | 0.527 | 0.54 | 0.426 | 0.258 | 0.262 | 0.27 | 0.236 | 0.236 | 0.881 | 0.637 | 0.748 | 0.731 | 0.948 | 0.451 | 0.323 | 0.417 | 0.44 | 0.394
NCI-H460 | 1.2 | 0.615 | 0.658 | 0.671 | 0.78 | 0.0552 | 0.0621 | 0.0636 | 0.0626 | 0.0707 | 0.94 | 0.665 | 0.729 | 0.626 | 0.504 | 0.374 | 0.383 | 0.266 | 0.548 | 0.291
NCI-H520 | 0.303 | 0.255 | 0.282 | 0.284 | 0.204 | 0.75 | 0.664 | – | 0.64 | 0.755 | 0.713 | 0.849 | – | 0.579 | 0.796 | 0.238 | 0.278 | 0.252 | 0.288 | 0.22
NCI-H596 | 0.761 | 0.681 | 0.757 | 0.668 | 0.865 | 0.592 | 0.497 | 0.469 | 0.552 | 0.435 | 0.722 | 0.772 | 0.578 | 0.694 | 0.656 | 0.417 | 0.381 | 0.407 | 0.429 | 0.355
NCI-H647 | 1.04 | 0.576 | 0.629 | 0.676 | 0.301 | 0.164 | 0.162 | 0.209 | 0.134 | 0.089 | 0.628 | 0.376 | 0.581 | 0.544 | 0.151 | 0.434 | 0.509 | 0.428 | 0.664 | 0.406
NCI-H650 | 0.561 | 0.534 | 0.521 | 0.521 | 0.566 | 1.22 | 0.873 | 1.03 | 0.852 | 1.15 | 0.465 | 0.518 | 0.361 | 0.486 | 0.507 | 0.887 | 0.818 | 0.984 | 0.982 | 0.859
NCI-H661 | 0.894 | 0.726 | 0.716 | 0.356 | 0.673 | 0.934 | 0.962 | 0.877 | 0.911 | 0.907 | 0.796 | 0.764 | 0.865 | 0.732 | 0.778 | 0.483 | 0.405 | 0.381 | 0.452 | 0.377
NCI-H838 | 0.468 | 0.437 | 0.478 | 0.429 | 0.453 | 0.266 | 0.236 | 0.258 | 0.271 | 0.322 | 0.776 | 0.697 | 0.75 | 0.706 | 0.794 | 0.415 | 0.485 | 0.439 | 0.552 | 0.467
NCI-H1355 | 0.417 | 0.42 | 0.407 | 0.398 | 0.378 | 1.13 | 1.08 | 1 | 1.06 | 0.945 | 0.69 | 0.655 | 0.595 | 0.617 | 0.657 | 0.438 | 0.356 | 0.386 | 0.366 | 0.332
NCI-H1395 | 0.641 | 0.705 | 0.547 | 0.621 | 0.692 | 0.925 | 0.842 | 0.822 | 0.887 | 0.912 | 0.679 | 0.754 | 0.588 | 0.635 | 0.747 | 0.567 | 0.599 | 0.601 | 0.624 | 0.545
NCI-H1437 | 1.1 | 0.942 | 0.68 | 0.989 | 1.17 | 0.298 | 0.294 | 0.32 | 0.323 | 0.334 | 0.863 | 0.644 | 0.691 | 0.783 | 0.826 | 0.453 | 0.411 | 0.37 | 0.596 | 0.415
